Experimental data taken from PubChem BioAssay (NCI).
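Grown in 96-well plates, cells were treated for 48 hours with each compound at five concentrations. Insufficient inhibition: endpoint recorded as highest concentration tested. Abbreviation: GI50, concentration required for 50% inhibition of growth. The concentration for full growth arrest is given as TGI.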

What was measured:
Assay in all cases: NCI anticancer screen, dose series, 48 h
SK-MEL-28 melanoma = system: SK-MEL-28 melanoma
OVCAR-5 ovarian = system: OVCAR-5 ovarian
HT29 colon = system: HT29 colon
SK-MEL-2 melanoma = system: SK-MEL-2 melanoma
SF-268 CNS = system: SF-268 CNS
LOX IMVI melanoma = system: LOX IMVI melanoma
K-562 leukemia = system: K-562 leukemia
HOP-62 NSCLC = system: HOP-62 NSCLC
UO-31 renal = system: UO-31 renal
OVCAR-3 ovarian = system: OVCAR-3 ovarian

Row | Compound | GI50 (SK-MEL-28 melanoma) [µM] | TGI (SK-MEL-28 melanoma) [µM] | GI50 (OVCAR-5 ovarian) [µM] | TGI (OVCAR-5 ovarian) [µM] | GI50 (HT29 colon) [µM] | TGI (HT29 colon) [µM] | GI50 (SK-MEL-2 melanoma) [µM] | TGI (SK-MEL-2 melanoma) [µM] | GI50 (SF-268 CNS) [µM] | TGI (SF-268 CNS) [µM] | TGI (LOX IMVI melanoma) [µM] | GI50 (K-562 leukemia) [µM] | TGI (K-562 leukemia) [µM] | GI50 (HOP-62 NSCLC) [µM] | TGI (HOP-62 NSCLC) [µM] | GI50 (UO-31 renal) [µM] | TGI (UO-31 renal) [µM] | GI50 (OVCAR-3 ovarian) [µM] | TGI (OVCAR-3 ovarian) [µM] | GI50 (LOX IMVI melanoma) [µM]
1 | O=C1NC(=O)C(c2cnc3ccccn23)=C1c1cn2c3c(cc(F)cc13)CN(C(=O)N1CCCCC1)CC2 | 19.5 | 45 | 23.5 | 64.4 | 0.723 | 20 | 8.8 | 27.2 | 13.4 | 39.4 | 15.8 | 3.39 | > 100 | 15 | 40.4 | 2.54 | > 65.5 | 11.8 | 44 | –
2 | CN(C)/C=N/c1nc2c(ncn2C2OC(CO)C(O)C2O)c(=O)[nH]1 (configuration not stated) | – | – | – | > 100 | – | > 100 | – | > 100 | – | > 100 | – | – | > 100 | – | > 100 | – | > 100 | – | > 100 | –
3 | Cn1c2ccccc2c2c3c(c4c5cc(Br)ccc5n(C)c4c21)C(=O)N(O)C3=O | 0.584 | > 100 | – | – | – | – | > 48.2 | > 100 | – | – | – | 0.197 | > 100 | – | – | – | – | – | – | –
4 | CC(C)CCN1c2nc(Nc3cc(F)c(O)c(F)c3)ncc2N(C)C(=O)C1C (configuration not stated) | 10.9 | > 95.8 | 19.1 | > 100 | 5.83 | 46.7 | 3.14 | 15.2 | 5.81 | 56.8 | 20.8 | 2.63 | > 33.3 | 6.66 | > 100 | 0.939 | 16.8 | 3.65 | 24.1 | 4.11
5 | [Cl][Hg][c]1cc(Br)cc(Br)c1 | 1.57 | 2.97 | 2.8 | 5.65 | 2.62 | 10.6 | 1.97 | 5.66 | 1.76 | 4.28 | 2.86 | 1.12 | 3.81 | 1.83 | 3.52 | 4.64 | 15.5 | 1.19 | 2.46 | 1.41
6 | O=C(CCn1[nH]c(=O)c(Cl)c(Cl)c1=O)NO | – | > 100 | – | > 100 | – | > 100 | – | > 100 | – | > 100 | > 100 | – | > 100 | – | > 100 | – | > 100 | – | > 100 | –
7 | O=C(O)CCC(=O)c1ccc[nH]1 | – | – | – | > 100 | – | > 100 | – | > 100 | – | > 100 | > 100 | – | > 100 | – | > 100 | – | > 100 | – | > 100 | –
8 | COC1(OC)CC2C(=O)N(Cc3ccccc3)C1C(S(=O)(=O)c1ccccc1)C2S(=O)(=O)c1ccccc1 (configuration not stated) | – | 26.8 | – | 34.1 | – | 28.4 | – | – | – | 29.3 | 21.8 | – | 46.2 | – | > 100 | – | 31.3 | – | 22.9 | –
9 | Cc1cc([N+](=O)[O-])ccc1Nc1cccc(Cl)c1C | – | 32.1 | – | 28.8 | – | 32 | – | 29 | – | 35.8 | 33.9 | – | 33.8 | – | 28 | – | 24.4 | – | 27.8 | –
10 | C=C1C(=O)O[C@@H]2C[C@@H]1CC/C(C)=C/CC/C(C)=C/CC[C@@]2(C)O | 22.2 | 49.8 | 22.1 | 39.4 | 31 | > 100 | 2.69 | 12.5 | 16.3 | 35.6 | > 100 | 4.7 | 17.3 | – | – | 16.3 | 33.4 | 5.59 | 18.7 | 5.49
11 | CC(C)=CCNc1ncnc2c1ncn2C1OC(CO)C(O)C1O (configuration not stated) | > 346 | > 1000 | 13.3 | > 1000 | 1.34 | > 1000 | 16.2 | 334 | 2 | > 432 | 1.5 | 0.703 | > 380 | 1.3 | 6.7 | 6.94 | 50 | 0.373 | 1.1 | 0.353
12 | CCCN=C(N)NC#N | – | > 100 | – | > 100 | – | > 100 | – | > 100 | – | > 100 | – | – | > 100 | – | > 100 | – | > 100 | – | > 100 | –
13 | CC1=C(C(=O)Nc2ccccc2)C(c2ccccc2)C(C(=O)Nc2ccccc2)=C(C)N1 | – | > 100 | – | > 100 | – | > 100 | – | > 100 | – | > 100 | – | – | – | – | > 100 | – | > 100 | – | > 100 | –
14 | N#CC(=C1C=CC(=NO)C=C1)c1ccccc1 | 8.71 | 27.5 | 2.53 | 5.03 | 2.16 | 6.69 | 2.14 | 6.77 | 1.37 | 6.06 | 6.25 | 1.85 | 13.2 | 6.31 | 25.2 | 3.45 | 19 | 0.458 | 4.38 | 1.17
15 | CC1=NNC(=O)C2CCC(=O)N12 (configuration not stated) | – | > 100 | – | – | – | – | – | > 100 | – | > 100 | – | – | > 100 | – | > 100 | – | > 100 | – | > 100 | –
16 | Cn1cc(CO)c2c1C(=O)C=C(N1CC1)C2=O | < 0.0166 | 0.605 | 0.0365 | 4.79 | < 0.0189 | > 57.3 | – | – | < 0.0154 | 2.35 | 0.0184 | 0.0224 | 11.1 | < 0.01 | < 0.0116 | – | – | < 0.0133 | 0.0375 | < 0.01
17 | OC[C@H]1C[C@](O)(c2ccc(Cl)cc2)[C@@H](c2ccc(Cl)cc2)O1 | 28.9 | 92.3 | 25.9 | 71.7 | 23.7 | 50.1 | – | – | 26.8 | > 100 | 34.8 | 24.9 | 76.5 | 20.9 | 51.8 | 19.4 | 50.3 | 26.2 | 58.9 | 17.9
